Experimental data from patent publication US12448388B2, “PRMT5 inhibitors and uses thereof” (Gilead Sciences, Inc., priority 2023, dated 2025).
≈ marks a conversion by molar mass, not a printed value. Like-named read-outs stand apart in the source and are kept apart here.

Tests used:
[1] = test system: HCT116 MTAP-deleted cell lines; assay: Cell viability assay (CellTiter-Glo, 7 days), HCT116 MTAP-deleted; format: cell-based; details: for Selectivity: HCT116 WT CC50 versus HCT116 MTAP^del CC50; for plasma-adjusted CC50 (paCC50): paCC50 = CC50-HCT116-MTAP^del * (% free CCM/% free human plasma); for CC50: Homo sapiens, HCT116 MTAP-deleted
Summary of the method: (§1)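 Dose-response, PRMT5 inhibitors from DMSO serial dilution, pre-spotted; cells seeded onto compound plates. 7 d, 37 °C/5% CO2/90% RH. Readout: CTG luminescence → CC50.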

[2] = Cell viability assay (CellTiter-Glo, 7 days), HCT116 WT; format: cell-based; details: human, HCT116 WT cells, 7 days of treatment, CTG
Summary of the method: as §1

[3] = MDR1/BCRP assay: permeability in cPgp-KO-MDCK-WT cells; format: in vitro ADME; details: dog, pH 7.4
Procedure: The cells were maintained in an incubator at 37° C., 90% humidity, and 5% CO2 until reaching confluence over 5 days in 96-well transwell plates. Experiments were conducted using an HBSS donor buffer (Invitrogen) containing 10 mM HEPES and 15 mM glucose, adjusted to pH 7.4. The receiver well contained HBSS buffer supplemented with 1% BSA, 10 mM HEPES, and 15 mM glucose, and the pH was adjusted to 7.4. TEER values were measured to assess membrane integrity after an initial equilibration with BSA-free transport buffer for 15 minutes. The experiment was started by adding dosing solutions containing test compounds at 1 μM. Cells were dosed on the apical (A) side or basolateral (B) side at 100 μl and 200 μl, respectively, to determine forward (A to B) and reverse (B to A) permeability. At the 2-hour time point, 50 μl samples were collected from the receiver compartment. Each compound was tested in 2 separate replicate wells for each condition. All samples were immediately collected into plates, and 50 μL of acetonitrile was added. Subsequently, 350 μl of 30:70 methanol: acetonitrile containing internal standard was added to precipitate proteins and stabilize the test compounds. To test for non-specific binding and compound instability, the total amount of the drug was quantified at the end of the experiment and compared to the material present in the original dosing solution as a percentage of the recovery. All samples were analyzed by LC-MS/MS using electrospray ionization.
The apparent permeability, Papp, and % recovery were calculated as follows: […]

[4] = PBS solubility (kinetic solubility from DMSO stocks); format: physicochemical; details: 22 °C, aqueous buffer, kinetic from dmso stock; 1x PBS pH 7.4, 1.0% DMSO, 24-hour incubation at ambient temperature
Procedure: Buffer Preparation: 1×PBS, 7.4: Phosphate Buffered Saline solution 10×, PBS (Fisher Bioreagent, part number BP399-500) 50 mL was added to approximately 450 mL HPLC grade H2O. The volume of the solution was then adjusted to 500 mL for a total dilution factor of 1:10 and a final PBS concentration of 1×. The pH of the final solution was measured and found to be 7.4.
The final DMSO Concentration is 1.0% and maximum theoretical compound concentration is 100 μM (assuming stock concentration of 10 mM). The filter plate was sealed. Following 24-hour incubation at ambient temperature (20.8-24.0° C.), the samples were vacuum filtered, and the filtrates were collected in a 96 well polypropylene plate for analysis. The collection plate was sealed for analysis. Filtrates were injected into the nitrogen detector for quantification on Analiza's Automated Discovery Workstation. The results are reported here in both μM and μg/mL.
Calculation of Results: The equimolar nitrogen response of the detector is calibrated using standards which span the dynamic range of the instrument from 0.08 to 4500 μg/ml nitrogen. The filtrates were quantified with respect to this calibration curve. The calculated solubility values are corrected for background nitrogen present in the DMSO, and the media used to prepare the samples. All reported values for compounds containing adjacent nitrogen atoms in a ring structure should be increased by ˜25%. […] The solubility results presented assume that the samples were free of nitrogen containing impurities and are stable under the assay conditions.

[5] = Hepatocyte stability assay, human; format: in vitro ADME; details: human hepatocytes, 1 μM
Procedure: BioreclamationIVT (Baltimore, MD) provided the cryopreserved hepatocytes, hepatocyte thawing (HT) medium, and Krebs-Henseleit buffer (KHB) medium. The stock solution concentration was 1 M in DMSO and was then diluted further in acetonitrile/water (1:1 v/v). All other chemicals were purchased from Sigma-Aldrich (St. Louis, MO) or Thermo Fisher Scientific (Waltham, MA).
The quench solution used to stop reactions in the hepatocyte incubations was comprised of 100% (v/v) acetonitrile. Internal Standard/Quench (IS/Q) solution used to stop reactions with the positive control also contained 200 nM Labetalol.
Metabolic Stability in Cryopreserved Hepatocytes: Test compounds, or the positive control metabolic substrate, was incubated in suspensions of cryopreserved hepatocytes at a final concentration of 1 μM. Vials containing cryopreserved hepatocytes were removed from liquid nitrogen and immediately immersed in a 37° C. water bath. The vials were swirled gently until the contents had thawed. They were then immediately emptied into 48 mL of pre-warmed thawing medium in a 50 mL conical tube. Cells remaining in the vial were re-suspended with 1.0 mL of pre-warmed thawing medium and added to the conical tube. The tube was capped and then gently inverted several times to re-suspend the hepatocytes. The cell suspension was centrifuged at 500×g for 10 minutes at room temperature and the supernatant discarded. The cell pellet was loosened by gently swirling the centrifuge tube. Non-supplemented KHB medium was added to obtain the appropriate target cell density. The viabilities of all cell preparations were ≥85%, assessed by Trypan blue dye exclusion.
For incubations, aliquots of hepatocyte suspension (250 μL containing a cell concentration of 2×10^6 cells/mL) were added to 250 μL of 2 μM substrate (test compound or positive control) in supplemented KHB in duplicate wells in a 24-well plate. Final concentration in the incubations were 1×10^6 cells/mL and 1 μM substrate. A cell-free control incubation (KHB only) was also included. The incubations were carried out with gentle shaking in a 37° C. incubator under a humid atmosphere of 95% air/5% CO2 (v/v). Aliquots (100 μL) were removed after 0, 1, 3, and 6 hours and added to 200 μL quenching solution. The samples were then placed on a shaker for 10 min followed by centrifugation at 3000×g for 20 min. The supernatant was transferred to a new plate and diluted with 100 μL of water to reduce the organic content and then placed on a shaker for 10 mins. Samples were injected and analyzed with methods described below.
Liquid Chromatography: Quantification of positive control and test compound was performed by analyte/internal standard peak area ratios (PAR) measured on a Thermo Scientific™ Q Exactive™ Hybrid Quadrupole-Orbitrap Mass Spectrometer MS/MS with an electrospray interface operating in positive ion mode. The mass spectrometer was coupled to a Dionex Ultimate® 3000 HPLC system. Samples (10 μL aliquots) were injected with a Leap Technologies HTC PAL autosampler. For positive control, the column used was a Thermo Scientific™ Hypersil GOLD™ HPLC column ([…], 50×2.1 mm). Mobile phase A consisted of 95% (v/v) water, 5% (v/v) acetonitrile, and contained 0.1% (v/v) formic acid (FA). Mobile phase B consisted of 95% (v/v) acetonitrile, 5% (v/v) water, and contained 0.1% (v/v) FA. Elution was achieved, at a flow rate of 0.5 mL/min, by a series of linear gradients: initial condition was 5% B at 0 min, isocratic for 20 seconds; then linear gradient to 95% B over 90 seconds, followed by isocratic for 60 seconds at 95% B, and re-equilibrated to initial conditions over 70 seconds.
Metabolic stabilities of positive control and test compound were determined by measuring the rates of disappearance of the parent with time by determining the % of parent remaining at time t (Ct) {Obach 1997}.
Data (% of parent remaining) were plotted on a semi-log scale and fitted using an exponential fit: […]

[6] = HCT-116, 168 h, 7 days of treatment, CTG, read-out: CC50-HCT116-MTAP^del
[7] = HCT-116, cell viability, class symbols, read-out: CC50

Row | SMILES | Selectivity [1] | plasma-adjusted CC50 (paCC50) ([1]; HCT-116) [nM] | CC50 [1, 6] [nM] | CC50 [1, 7] [nM] | CC50 at 7 days [2] [nM] | Papp A→B at 2 h, 1 µM [3] [×10⁻⁶ cm/s] | solubility at 24 h [4] [µM] | Human Predicted Hepatocyte CL [5] [mL/min/kg]
1 | [2H]C1([2H])CC[C@@H]2Oc3cc(C(F)(F)F)ccc3[C@@H]2N1C(=O)c1cc2c(cc1F)nc(N)c1cncn12 [Ff-121, (4-amino-7-fluoroimidazo[1,5-a]quinoxalin-8-yl)((4aS,9bS)-7-(trifluoromethyl)-3,4,4a,9b-tetrahydrobenzofuro[3,2-b]pyridin-1(2H)-yl-2,2-d2)methanone] | 153 | 106 | 3 | < 100 | 459 | 15.1 | 4 (≈ 1.89 µg/mL) | 8
2 | Cc1ncc2c(N)nc3cnc(C(=O)N4CCC[C@@H]5Oc6cc(C(F)(F)F)ccc6[C@@H]54)cc3n12 [Ff-344, (4-amino-1-methylimidazo[1,5-a]pyrido[3,4-e]pyrazin-8-yl)((4aS,9bS)-7-(trifluoromethyl)-3,4,4a,9b-tetrahydrobenzofuro[3,2-b]pyridin-1(2H)-yl)methanone] | 85 | 476 | 27 | < 100 | 2300 | 14.7 | < 1 | 1.2
3 | Nc1nc2cc(F)c(C(=O)N3CC[C@H]4C[C@@H]3c3ccc(C(F)(F)F)nc3O4)cc2n2cncc12 [Ff-366, (4-amino-7-fluoroimidazo[1,5-a]quinoxalin-8-yl)((2S,6R)-9-(trifluoromethyl)-3,4-dihydro-2H-2,6-methanopyrido[2,3-b][1,5]oxazocin-5(6H)-yl)methanone] | 75 | 206 | 29 | < 100 | 2170 | 9 | 25.2 (≈ 11.9 µg/mL) | 0.83
4 | Cc1ncc2c(N)nc3cnc(C(=O)N4CC[C@H]5C[C@@H]4c4cc(F)c(C(F)(F)F)cc4O5)cc3n12 [Ff-696, (4-amino-1-methylimidazo[1,5-a]pyrido[3,4-e]pyrazin-8-yl)((2S,6R)-8-fluoro-9-(trifluoromethyl)-3,4-dihydro-2H-2,6-methanobenzo[b][1,5]oxazocin-5(6H)-yl)methanone] | 83 | 198 | 17 | – | 1410 | 21 | 2.9 (≈ 1.41 µg/mL) | 4.5
5 | Cc1ncc2c(N)nc3cnc(C(=O)N4CCC[C@@H]5Oc6cc(OC(F)(F)F)cc(F)c6[C@@H]54)cc3n12 [Fg-66, (4-amino-1-methylimidazo[1,5-a]pyrido[3,4-e]pyrazin-8-yl)((4aS,9bS)-9-fluoro-7-(trifluoromethoxy)-3,4,4a,9b-tetrahydrobenzofuro[3,2-b]867yridine-1(2H)-yl)methanone] | 116 | 788 | 72 | – | 8370 | 19.3 | < 1 | 4.67
6 | Cc1ncc2c(N)nc3cnc(C(=O)N4CCC[C@@H]5Oc6cc(C(F)(F)F)cc(F)c6[C@@H]54)cc3n12 [Fg-67, (4-amino-1-methylimidazo[1,5-a]pyrido[3,4-e]pyrazin-8-yl)((4aS,9bS)-9-fluoro-7-(trifluoromethyl)-3,4,4a,9b-tetrahydrobenzofuro[3,2-b]pyridin-1(2H)-yl)methanone] | 112 | 402 | 38 | – | 4260 | 18.5 | 1.7 (≈ 0.827 µg/mL) | 4
